Reference: US20070254931A1, “Thiazole Derivatives Having Vap-1 Inhibitory Activity” (Astellas Pharma Inc., priority 2004, published 2007)
Counter-ions that a name gives are not always drawn.

Experiments:
[1] = biological target: T1, Human plasma SSAO (Homo sapiens, UniProt Q16853); test: VAP-1 enzyme (SSAO) activity in human plasma, radiochemical-enzyme assay with 14C-benzylamine; format: biochemical; details: human plasma enzyme suspension; pre-incubation 30 min at room temperature; 14C-benzylamine 2×10^−5 mol/l, 37° C., 1 hour; read-out: Inhibitory effect (IC50 values, μM) Human plasma SSAO
T1 construct: The enzyme suspension prepared from blood plasma was pre-incubated with a control compound; from tissue; host or cells: human blood plasma
T1 sequence (Q16853 27-763 limits assumed): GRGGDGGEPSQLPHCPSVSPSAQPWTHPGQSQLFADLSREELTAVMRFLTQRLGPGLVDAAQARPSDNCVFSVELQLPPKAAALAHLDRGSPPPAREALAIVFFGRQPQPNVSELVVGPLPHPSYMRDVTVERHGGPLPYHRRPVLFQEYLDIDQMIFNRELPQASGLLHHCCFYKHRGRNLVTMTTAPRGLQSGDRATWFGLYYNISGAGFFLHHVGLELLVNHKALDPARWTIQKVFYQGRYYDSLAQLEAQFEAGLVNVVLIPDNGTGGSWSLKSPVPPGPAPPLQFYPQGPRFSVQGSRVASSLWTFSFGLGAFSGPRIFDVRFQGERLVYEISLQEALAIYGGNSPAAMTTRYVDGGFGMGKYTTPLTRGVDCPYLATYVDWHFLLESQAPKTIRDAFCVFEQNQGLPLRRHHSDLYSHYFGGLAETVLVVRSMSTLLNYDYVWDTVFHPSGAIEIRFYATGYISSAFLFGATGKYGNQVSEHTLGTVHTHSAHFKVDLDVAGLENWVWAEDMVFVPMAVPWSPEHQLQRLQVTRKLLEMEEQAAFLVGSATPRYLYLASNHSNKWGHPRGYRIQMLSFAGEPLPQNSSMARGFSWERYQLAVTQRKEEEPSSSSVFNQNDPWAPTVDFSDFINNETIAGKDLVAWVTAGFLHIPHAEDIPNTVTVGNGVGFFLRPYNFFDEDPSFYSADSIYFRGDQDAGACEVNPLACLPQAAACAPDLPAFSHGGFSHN
Description: VAP-1 enzyme (SSAO) activity in human plasma was determined by a radiochemical-enzyme assay using ^14C-benzylamine as an artificial substrate. The enzyme suspension prepared from blood plasma was pre-incubated with a control compound (Reference Example 1) in 96-well microplate at room temperature for 30 min. The enzyme suspension was then incubated with ^14C-benzylamine (2×10^−5 mol/l final concentration) in a final volume of 50 μl at 37° C. for 1 hour. The enzyme reaction was terminated by adding 2 mol/l (50 μl) citric acid. The oxidized products were directly extracted into a 200 μl toluene scintillator, and its radioactivity was measured by a scintillation spectrometer. Inhibition activity was expressed as IC50 (μmol/l) value.
Test compounds (i.e., the present compounds) inhibited the enzyme activity of human plasma SSAO in comparison with the control compound as shown in Table 1.

Row | Structure (SMILES) | melting point | IC50 [1]
1 | CC(=O)Nc1nc(-c2ccc(CCNC(=N)N)cc2)c(Cc2ccc(S(C)(=O)=O)cc2)s1.Cl | 217 to 218.5 °C | –
2 | CC(=O)Nc1nc(CCc2ccc(NC(=N)N)cc2)c(Cc2cccc(S(C)(=O)=O)c2)s1 [Production Example 1, N-{4-[2-(4-{[amino(imino)methyl]amino}phenyl)ethyl]-5-[3-(methylsulfonyl)benzyl]-1,3-thiazol-2-yl}acetamide] | 212 to 213.5 °C | 0.016 µM
3 | CC(=O)Nc1nc(CCc2ccc(NC(=N)N)cc2)c(Cc2ccc(S(N)(=O)=O)cc2)s1 [Production Example 3, N-{4-[2-(4-{[amino(imino)methyl]amino}phenyl)ethyl]-5-[4-(aminosulfonyl)benzyl]-1,3-thiazol-2-yl}acetamide hydrochloride] | – | 0.0045 µM
4 | CC(=O)Nc1nc(-c2ccc(CCCCNC(=N)N)cc2)cs1 [Production Example 7, N-{4-[4-(4-{[amino(imino)methyl]amino}butyl)phenyl]-1,3-thiazol-2-yl}acetamide hydrochloride] | – | 0.015 µM
5 | CC(=O)Nc1nc(CCc2ccc(CC(=O)NC(=N)N)cc2)cs1 [Production Example 9, 2-(4-{2-[2-(acetylamino)-1,3-thiazol-4-yl]ethyl}phenyl)-N-[amino(imino)methyl]acetamide] | – | 0.0026 µM
6 | CC(=O)Nc1nc(CCc2ccc(NC(=N)N)cc2)c(CN2CC[C@@H](C(=O)N(C)C)C2)s1 [Production Example 12, (3R)-1-({2-(acetylamino)-4-[2-(4-{[amino(imino)methyl]amino}phenyl)ethyl]-1,3-thiazol-5-yl}methyl)-N,N-dimethyl-3-pyrrolidinecarboxamide dihydrochloride] | – | 0.019 µM
7 | CC(=O)Nc1nc(CCc2ccc(NC(=N)N)cc2)c(CN2CC[C@H](C(=O)N(C)C)C2)s1 [Production Example 14, (3S)-1-({2-(acetylamino)-4-[2-(4-{[amino(imino)methyl]amino}phenyl)ethyl]-1,3-thiazol-5-yl}methyl)-N,N-dimethyl-3-pyrrolidinecarboxamide dihydrochloride] | – | 0.014 µM
8 | CC(=O)Nc1nc(CCc2ccc(NC(=N)N)cc2)c(CN(C)C(=O)c2ccc(S(C)(=O)=O)cc2)s1 [Production Example 16, N-({2-(acetylamino)-4-[2-(4-{[amino(imino)methyl]amino}phenyl)ethyl]-1,3-thiazol-5-yl}methyl)-N-methyl-4-(methylsulfonyl)benzamide hydrochloride] | – | 0.012 µM
9 | CC(=O)Nc1nc(CCc2ccc(NC(=N)N)cc2)c(CN(C)C(=O)c2ccc([N+](=O)[O-])cc2)s1 [Production Example 19, N-({2-(acetylamino)-4-[2-(4-{[amino(imino)methyl]amino}phenyl)ethyl]-1,3-thiazol-5-yl}methyl)-N-methyl-4-nitrobenzamide hydrochloride] | – | 0.032 µM
10 | CC(=O)Nc1nc(CCc2ccc(CCNC(=N)N)cc2)cs1 [Production Example 25, N-(4-{2-[4-(2-{[amino(imino)methyl]amino}ethyl)phenyl]ethyl}-1,3-thiazol-2-yl)acetamide] | – | 0.0057 µM
11 | CC(=O)Nc1nc(CCc2ccc(NC(=N)N)cc2)cs1 [Reference Example 1, N-{4-[2-(4-{[amino(imino)methyl]amino}phenyl)ethyl]-1,3-thiazol-2-yl}acetamide, reference compound] | – | 0.033 µM
